Results: patent US4956363A, “Treatment of cognitive and behavioral disorders associated with aging and with dementia syndromes” (U C B S.A., priority 1988, dated 1990)

What was measured:
male NMRI mice = assay: Toxicity, Irwin's test; assay type: in vivo
Experimental: Progressive doses of the compound to be tested are administered intraperitoneally to groups of three mice until the lethal dose is reached (dose which causes the death of two animals out of three within 48 hours).

[1] = test system: amnesia induced by scopolamine; assay: Multiple-trial passive avoidance: mnemic retention (amnesia induced by scopolamine); details: compound i.p. at the dose of the line + scopolamine 0.5 mg i.p.
Experimental: To this end, the method of multiple-trial passive avoidance has been used. This method is well-known for evaluating the effects which a product exerts on the memory and learning (A. FINE et al., Proc. Natl. Acad. Sci. U.S.A., 82, (1985), 5227-5230).
The test is carried out on male Sprague-Dawley rats (160-200 g). which are kept in standard cages throughout the experiment.
The apparatus used is a transparent square cage with 35 cm sides and 25 cm high, fitted with a grid floor which can be electrified. An insulating rubber mat (10×17 cm) is placed on the floor in one of the corners of the cage.
Each animal is subjected to four tests at times 0, 4, 24 and 28 hours. In the first test (time 0), the animal is placed on the rubber mat and the time which it takes to decide to leave this position to explore the cage is recorded. After 20 seconds of exploration, the rat receives an electric shock (3 seconds duration) in the paws, causing a flight reaction. The rat is immediately removed from the apparatus and replaced in its original cage. In the course of the three subsequent tests (times: 4, 24 and 28 hours), the animal is replaced on the rubber mat and the time taken to leave this position is recorded. When the four paws of the animal rest on the grid, it receives an electric shock and is immediately removed from the apparatus.
At the start of the experiment, the rats are divided into 4 homogeneous groups of 15 animals. Thirty minutes before each test, each group of animals is subjected to a predetermined treatment:
Groups 1 and 2 are used in the first experiment and groups 3 and 4 are used in the second experiment.
The differences observed are analyzed statistically by the Mann-Whitney method.

[2] = test system: learning of the avoidance reflex; assay: Multiple-trial passive avoidance: learning; assay type: in vivo, rats (male Sprague-Dawley); details: i.p. at the dose (mg/kg) of the line in Table V, 30 min before test; criterion 180 seconds on the mat
Experimental: To evaluate whether a compound can promote learning, the following test is carried out.
This experiment is repeated until the animal remains on the rubber mat for at least 180 seconds in order to avoid the electric shock. The learning is expressed by the average number of trials needed to reach a period of 180 seconds remaining on the mat.
A period of remaining on the rubber mat of 180 seconds is regarded as being the maximum performance which can be realized by the animal to avoid the electric shock. Rats which remain on the mat for this period have acquired the avoidance reflex and are replaced in their original cage without receiving the electric shock.
group 1 receives an intraperitoneal injection of physiological salt solution:
group 2 receives an intraperitoneal injection of the compound to be tested:
Columns 3 and 4 show the results obtained in the test used to evaluate the learning. The figures indicate the average number of trials needed for a control animal (group 1) or an animal treated (group 2) with the compound to learn to remain on the rubber mat for 180 seconds in order to avoid the electric shock. The results were analyzed by the Student test.

[3] = mice, i.p., death of two animals out of three within 48 hours

For `CCCc1nc(NCCO)nc(N2CCOCC2)n1`, the Lethal dose (male NMRI mice; [3]) was 802 mg/kg, the “Period of remaining on the mat, group 4, 4 hours” value [1] was 44.8 s and the “Period of remaining on the mat, group 4, 24 hours” value (“Period of remaining … 24 hours” for short) [1] was 61.3 s. For the same compound, the “Period of remaining on the mat, group 4, 28 hours” value (“Period of remaining … 28 hours” for short) [1] was 102.7 s and the “Learning, average number of trials (group 2)” value (“Learning, average number” for short) [2] was 1.53.
For `CCCc1nc(NN(C)C)nc(N2CCOCC2)n1`, the Lethal dose (male NMRI mice; [3]) was 799 mg/kg, the “Period of remaining on the mat, group 4, 4 hours” value [1] was 55.3 s and the “Period of remaining … 24 hours” value [1] was 57.7 s. For the same compound, the “Period of remaining … 28 hours” value [1] was 87.9 s and the “Learning, average number” value [2] was 1.53.
With `CCCc1nc(NC(C)=O)nc(N2CCOCC2)n1` [listing 1 of 2 here] the Lethal dose (male NMRI mice; [3]) was 996 mg/kg, the “Period of remaining on the mat, group 4, 4 hours” value [1] was 60.4 s and the “Period of remaining … 24 hours” value [1] was 74.6 s. For the same compound, the “Period of remaining … 28 hours” value [1] was 102.4 s and the “Learning, average number” value [2] was 1.53.
`CCCc1nc(NC(C)=O)nc(N2CCOCC2)n1` [listing 2 of 2 here] was tested, and the Lethal dose (male NMRI mice; [3]) was 905 mg/kg.
`CCCc1nc(NC(=O)c2ccccc2)nc(N2CCOCC2)n1.Cl` was tested, and the Lethal dose (male NMRI mice; mouse, in vivo, ip) was 1091 mg/kg, the “Period of remaining on the mat, group 4, 4 hours” value [1] was 70.9 s and the “Period of remaining … 24 hours” value [1] was 82.8 s. For the same compound, the “Period of remaining … 28 hours” value [1] was 137.6 s and the “Learning, average number” value [2] was 1.0.
In the case of `CCCc1nc(N2CCOCC2)nc(N(C)C(C)=O)n1` [listing 1 of 2 here], the Lethal dose (male NMRI mice; [3]) is reported as 838 mg/kg, the “Period of remaining … 24 hours” value [1] is reported as 34.7 s and the “Period of remaining … 28 hours” value [1] is reported as 44.5 s. The “Learning, average number” value [2] was 2.07.
For `CCCc1nc(N2CCOCC2)nc(N(C)C(C)=O)n1` [listing 2 of 2 here], the Lethal dose (male NMRI mice; [3]) was 947 mg/kg.
`CCCc1nc(N2CCOCC2)nc(N(C)C(=O)C(C)C)n1` showed a Lethal dose (male NMRI mice; [3]) of 922 mg/kg.
With `CCCc1nc(N2CCOCC2)nc(N(C)C(=O)c2ccccc2)n1.Cl` the Lethal dose (male NMRI mice; mouse, in vivo, ip) was 1133 mg/kg, the “Period of remaining on the mat, group 4, time 0” value ([1]; 0 h) was 11.3 s and the “Period of remaining on the mat, group 4, 4 hours” value [1] was 88.6 s. The “Period of remaining … 24 hours” value [1] was 111.5 s, the “Period of remaining … 28 hours” value [1] was 133.5 s and the “Learning, average number” value [2] was 1.13.
With `CCCc1nc(NCCOC(C)=O)nc(N2CCOCC2)n1` the Lethal dose (male NMRI mice; [3]) was 928 mg/kg, the “Period of remaining … 24 hours” value [1] was 44.4 s and the “Period of remaining … 28 hours” value [1] was 49.9 s. The “Learning, average number” value [2] was 1.3.
For `CCCc1nc(N2CCOCC2)nc(N(CCOC(C)=O)C(C)=O)n1`, the Lethal dose (male NMRI mice; [3]) was 351 mg/kg.
In the case of `CCCc1nc(NC(CC)CO)nc(N2CCOCC2)n1` (stereo not drawn), the Lethal dose (male NMRI mice; [3]) is reported as 886 mg/kg, the “Period of remaining … 24 hours” value [1] is reported as 22.5 s and the “Period of remaining … 28 hours” value [1] is reported as 52.1 s. For the same compound, the “Learning, average number” value [2] was 2.57.
For `CCCc1nc(N(C)CCO)nc(N2CCOCC2)n1`, the Lethal dose (male NMRI mice; [3]) was 844 mg/kg, the “Period of remaining on the mat, group 4, 4 hours” value [1] was 67.9 s and the “Period of remaining … 24 hours” value [1] was 62.7 s. For the same compound, the “Period of remaining … 28 hours” value [1] was 160.3 s and the “Learning, average number” value [2] was 2.0.
`CCCc1nc(NO)nc(N2CCOCC2)n1` [Compound 2, 2-(hydroxyamino)-4-morpholino-6-propyl-1,3,5-triazine] showed a Lethal dose (male NMRI mice; [3]) of 718 mg/kg.
With `CCCc1nc(NCCCO)nc(N2CCOCC2)n1` [Compound 3] the Lethal dose (male NMRI mice; [3]) was 844 mg/kg.
In the case of `CCCc1nc(NCCCCO)nc(N2CCOCC2)n1` [Compound 4], the Lethal dose (male NMRI mice; [3]) is reported as 886 mg/kg.
Compound `CCCc1nc(NCC(C)O)nc(N2CCOCC2)n1` (stereo not drawn) [Compound 5] has a Lethal dose (male NMRI mice; [3]) of 563 mg/kg.
`CCCc1nc(NCC(O)CC)nc(N2CCOCC2)n1` (stereo not drawn) [Compound 6] was tested, and the Lethal dose (male NMRI mice; [3]) was 886 mg/kg.
In the case of `CCCc1nc(NC(C)(C)CO)nc(N2CCOCC2)n1` [Compound 8], the Lethal dose (male NMRI mice; [3]) is reported as 886 mg/kg.
With `CCCc1nc(NCCOC)nc(N2CCOCC2)n1` [Compound 10, 2-[(2-methoxyethyl)amino]-4-morpholino-6-propyl-1,3,5-triazine] the Lethal dose (male NMRI mice; [3]) was 844 mg/kg, the “Period of remaining on the mat, group 4, 4 hours” value [1] was 15.7 s and the “Period of remaining … 24 hours” value [1] was 31.1 s. The “Period of remaining … 28 hours” value [1] was 34.1 s and the “Learning, average number” value [2] was 2.07.
In the case of `CCCc1nc(NCC(O)CO)nc(N2CCOCC2)n1` (stereo not drawn) [Compound 11], the Lethal dose (male NMRI mice; [3]) is reported as 892 mg/kg.
`CCCc1nc(NC(CO)(CO)CO)nc(N2CCOCC2)n1` [Compound 12] was tested, and the Lethal dose (male NMRI mice; [3]) was 982 mg/kg.
Work on `CCCc1nc(NC(C)(CO)CO)nc(N2CCOCC2)n1` [Compound 13] yielded a Lethal dose (male NMRI mice; [3]) of 934 mg/kg.
In the case of `CCCc1nc(N2CCOCC2)nc(N(CCO)Cc2ccccc2)n1` [Compound 14], the Lethal dose (male NMRI mice; [3]) is reported as greater than 1073 mg/kg.
Work on `CCCc1nc(NC(CO)C(O)c2ccccc2)nc(N2CCOCC2)n1` (stereo not drawn) [Compound 15] yielded a Lethal dose (male NMRI mice; [3]) of 1121 mg/kg.
Work on `CCCc1nc(NC[C@H](C)O)nc(N2CCOCC2)n1` [Compound 16, (S)-3-[(4-morpholino-6-propyl-1,3,5-triazin-2-yl)amino]-2-propanol] yielded a Lethal dose (male NMRI mice; [3]) of 844 mg/kg.
Compound `CCCc1nc(NC[C@@H](C)O)nc(N2CCOCC2)n1` [Compound 17, (R)-3-[(4-morpholino-6-propyl-1,3.5-triazin-2-yl)amino]-2-propanol] has a Lethal dose (male NMRI mice; [3]) of 844 mg/kg.
Work on `CCCc1nc(NCC2(O)CCCCC2)nc(N2CCOCC2)n1` [Compound 18] yielded a Lethal dose (male NMRI mice; [3]) of 1007 mg/kg.
With `CCCc1nc(N2CCOCC2)nc(N2CCCC2CO)n1` (stereo not drawn) [Compound 19] the Lethal dose (male NMRI mice; [3]) was 1031 mg/kg.
`CCCc1nc(NC(=O)Cc2ccccc2)nc(N2CCOCC2)n1` [Compound 23] gave a Lethal dose (male NMRI mice; [3]) greater than 1024 mg/kg.
Compound `CCCc1nc(NC(=O)C(C)C)nc(N2CCOCC2)n1` [Compound 24] has a Lethal dose (male NMRI mice; [3]) of 880 mg/kg.
In the case of `CCCc1nc(NC(=O)Oc2ccccc2)nc(N2CCOCC2)n1` [Compound 28, phenyl (4-morpholino-6-propyl-1,3,5-triazin-2-yl)carbamate], the Lethal dose (male NMRI mice; [3]) is reported as greater than 1030 mg/kg.
Compound `CCCc1nc(NC(=O)c2ccc(Cl)cc2)nc(N2CCOCC2)n1` [Compound 29] has a Lethal dose (male NMRI mice; [3]) of 398 mg/kg.
`CCCc1nc(N2CCOCC2)nc(N(C)C(=O)c2ccc(Cl)cc2)n1` [Compound 30] showed a Lethal dose (male NMRI mice; [3]) of 1125 mg/kg.
With `CCCc1nc(NC(=O)c2ccc(OC)cc2)nc(N2CCOCC2)n1` [Compound 31] the Lethal dose (male NMRI mice; [3]) was 511 mg/kg.
In the case of `CCCc1nc(N2CCOCC2)nc(N(C)C(=O)c2ccc(OC)cc2)n1` [Compound 32], the Lethal dose (male NMRI mice; [3]) is reported as 1222 mg/kg.
With `CCCc1nc(NC(=O)c2ccc(C)cc2)nc(N2CCOCC2)n1` [Compound 33] the Lethal dose (male NMRI mice; [3]) was 1132 mg/kg.
In the case of `CCCc1nc(N2CCOCC2)nc(N(C)C(=O)c2ccc(C)cc2)n1` [Compound 34], the Lethal dose (male NMRI mice; [3]) is reported as 1174 mg/kg.
For `CCCc1nc(N2CCOCC2)nc(N(C)C(=O)c2ccc(OC)c(OC)c2)n1` [Compound 35], the Lethal dose (male NMRI mice; [3]) was 401 mg/kg.
In the case of `CCCc1nc(NC(=O)c2ccc(C)c(C)c2)nc(N2CCOCC2)n1` [Compound 36], the Lethal dose (male NMRI mice; [3]) is reported as 1174 mg/kg.
`CCCc1nc(NCCOC(=O)C(C)C)nc(N2CCOCC2)n1` [Compound 38] showed a Lethal dose (male NMRI mice; [3]) greater than 1012 mg/kg.
With `CCCc1nc(NCCOC(=O)c2ccccc2)nc(N2CCOCC2)n1` [Compound 39] the Lethal dose (male NMRI mice; [3]) was greater than 1114 mg/kg.
With `CCCc1nc(NCCOC(=O)Cc2ccccc2)nc(N2CCOCC2)n1` [Compound 40] the Lethal dose (male NMRI mice; [3]) was 1157 mg/kg.
`CCCc1nc(NC(=O)N(C)C)nc(N2CCOCC2)n1` [Compound 41, N,N-Dimethyl-N'-(4-morpholino-6-propyl-1,3,5-triazin-2-yl)-urea] was tested, and the Lethal dose (male NMRI mice; [3]) was 294 mg/kg, the “Period of remaining on the mat, group 4, 4 hours” value [1] was 15.8 s and the “Period of remaining … 24 hours” value [1] was 27.3 s. The “Period of remaining … 28 hours” value [1] was 66.3 s and the “Learning, average number” value [2] was 1.33.
With `CCCc1nc(NCCOC(N)=O)nc(N2CCOCC2)n1` [Compound 42, 2-[[2-[(Aminocarbonyl)oxy]ethyl]amino]-4-morpholino-6-propyl-1,3,5-triazine] the Lethal dose (male NMRI mice; [3]) was greater than 931 mg/kg.
